According to patent US10988523B2, “Modified lipidated Relaxin B chain peptides and their therapeutic use” (Sanofi, priority 2018, dated 2021):
*1 amine or outer side, *2 acyl side, *3 side chain or, on linkers, in order; H or OH if unused. Where a SMILES comes first, the peptide text is derived from it. Side-chain parts run from the residue outwards. [ ]: non-standard residue; d: D form. The star is where a group is joined. X1 = CCCCCCCCCCCCCCCCCC(=O)N[C@@H](CCC(=O)N[C@@H](CCC(=O)N[C@@H](CCC(=O)NCCCC[C@H](NC(=O)COCC(=O)NCCCOCCOCCOCCCNC(=O)COCC(=O)NCCCOCCOCCOCCCN*)C(N)=O)C(=O)O)C(=O)O)C(=O)O; γGlu = O=C(O)[C@H](CCC(=O)[*:2])N[*:1]; Stearoyl = CCCCCCCCCCCCCCCCCC(=O)*; Palmitoyl = CCCCCCCCCCCCCCCC(=O)*; Nle = CCCC[C@H](N)C(=O)O; AEEA = NCCOCCOCC(=O)O; Aib = CC(C)(N)C(=O)O

Tests used:
[1] = Stability testing of peptides in rat plasma or blood; assay type: in vitro ADME; details: 37° C.; for Rat plasma stability % remaining T = 0: rat plasma or blood, T = 0 (reference), 5 μM
Experimental: (§1) Prior to the testing of stability in plasma (or blood) of a peptide batch, its purity (HPLC-UV) was determined.
(§2) Rat and Human plasma: anti-coagulant sodium or lithium heparin.
(§3) Rat and Human blood: anti-coagulant sodium or lithium heparin. • Stock solution: • 100 μM solution of study compound in 50 mM Phosphate buffer pH 7.4. • 950 μL plasma (or blood) was pre-incubated for 5 min at 37° C. 50 μL of compound stock solution was added. Final compound concentration=5 μM. Vortex and transfer 1504, plasma (or blood) into an Eppendorf for each time point. The time points […] were carried out in duplicate for each species.
(§4) After incubation 150 μL, plasma (or blood) was extracted with 600 μL, Acetonitrile containing with 1% TFA. Then, vortexed and centrifuged 10 min at 14600 rpm. 200 μL supernatant was dried under N2. The sample was reconstituted in 200 μL of H2O/CH3CN 98/2+0.1% FA+50 ng/ml Labetalol and analyzed using the analytical system used in solubility and stability studies.
(§5) For determination of the amount of the remaining peptide, the peak areas of the target compound at t0 and each time point […] were compared, resulting in “% remaining peptide”, following the equation: % remaining peptide=[(peak area peptide time)×100]/peak area peptide t0. The stability is expressed as “% remaining peptide”.

RXFP1 = biological target: T1, RXFP1 (Homo sapiens, UniProt Q9HBX9); test: OVCAR5 cAMP assay (HTRF), RXFP1 agonist activity; assay type: cell-based; details: for Emax: OVCAR-5, maximal cAMP relative to H2-relaxin maximum (100%), read-out: EMax, OVCAR 5 cells (cAMP); for EC50: OVCAR5 cells, cAMP HTRF, read-out: EC50 (nM), OVCAR 5 cells (cAMP)
T1 construct: OVCAR5 cells expressing endogenous RXFP1; endogenous in cells; host or cells: OVCAR5 cells
T1 sequence (Q9HBX9 1-757): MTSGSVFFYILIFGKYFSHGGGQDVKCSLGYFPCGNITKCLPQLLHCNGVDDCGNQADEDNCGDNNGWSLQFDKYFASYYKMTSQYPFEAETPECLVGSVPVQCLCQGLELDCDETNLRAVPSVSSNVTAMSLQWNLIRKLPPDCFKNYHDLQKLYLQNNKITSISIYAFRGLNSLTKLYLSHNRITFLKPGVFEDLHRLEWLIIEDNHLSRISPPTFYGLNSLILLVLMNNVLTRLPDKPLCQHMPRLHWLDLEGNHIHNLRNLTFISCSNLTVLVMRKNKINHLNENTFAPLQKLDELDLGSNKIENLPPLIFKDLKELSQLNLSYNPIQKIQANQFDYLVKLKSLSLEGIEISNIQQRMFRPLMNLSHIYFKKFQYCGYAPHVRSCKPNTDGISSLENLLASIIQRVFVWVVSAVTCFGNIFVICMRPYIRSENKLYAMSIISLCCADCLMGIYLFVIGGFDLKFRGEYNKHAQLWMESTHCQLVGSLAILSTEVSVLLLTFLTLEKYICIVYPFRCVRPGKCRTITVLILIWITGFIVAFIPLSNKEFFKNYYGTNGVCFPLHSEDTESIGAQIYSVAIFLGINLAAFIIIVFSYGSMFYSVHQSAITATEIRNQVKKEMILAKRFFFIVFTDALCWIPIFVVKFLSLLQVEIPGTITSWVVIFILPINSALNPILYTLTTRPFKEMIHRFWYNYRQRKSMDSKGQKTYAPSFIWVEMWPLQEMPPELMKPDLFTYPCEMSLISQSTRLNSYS
In short: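 cAMP accumulation readout: after 1 mM IBMX for 40 min, endogenous-RXFP1 OVCAR5 cells got rising peptide concentrations without FCS, 30 min, 37° C, then lysis with HTRF cAMP reagents. Nonlinear regression gave EC50; Emax expressed relative to H2-relaxin maximum, same occasion.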

[2] = Pharmacokinetic (PK) determination after i.v. or s.c. administration to rats; assay type: in vivo, Sprague Dawley rats; details: Sprague Dawley, Rat PK; for C0 / half-life: iv, 1 mg/kg i.v.; for C0: extrapolated plasma concentration at t=0, read-out: C0; for half-life / Cmax / Tmax / bioavailability: plasma; for half-life: read-out: T½ (converted); for Cmax / Tmax: sc, 3 mg/kg s.c.; for bioavailability: subcutaneous, 3 mg/kg s.c. vs 1 mg/kg i.v., dose-corrected AUC ratio
In short: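 Non-compartmental analysis of plasma LC/MS data (protein precipitation, BLQ taken as zero) gave T½, C0 (i.v.), Cmax/Tmax (s.c.) and F% from dose-corrected AUCs. Dosing: 3 mg/kg s.c. or 1 mg/kg i.v. in PBS to Sprague Dawley rats, purity- and salt-corrected.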

[3] = Stability testing of peptides in human plasma or blood; assay type: in vitro ADME; details: 37° C.; for Human Plasma stability % remaining T = 0: human plasma or blood, T = 0 (reference), 5 μM
Experimental: as §1, §2, §3, §4, §5

[4] = whole blood, rat blood, read-out: Rat stability in blood % remaining 1 h
[5] = whole blood, rat blood, read-out: Rat stability in blood % remaining 4 h
[6] = rat plasma, read-out: Rat plasma stability % remaining 1 h
[7] = rat plasma, read-out: Rat plasma stability % remaining 4 h
[8] = human plasma, read-out: Human Plasma stability % remaining 1 h
[9] = human plasma, read-out: Human Plasma stability % remaining 4 h

| Rat plasma stability % remaining T = 0 [1] [%] | remaining at 1 h, 5 µM [1, 4] [%] | remaining at 4 h, 5 µM [1, 5] [%] | Emax (RXFP1) [%] | C0 [2] [nM] | half-life [2] [h] | Cmax [2] [nM] | Tmax [2] [h] | bioavailability [2] [%] | Human Plasma stability % remaining T = 0 [3] [%] | remaining at 1 h, 5 µM ([3]; whole blood, human blood, read-out: Human stability in blood % remaining 1 h) [%] | remaining at 4 h, 5 µM ([3]; whole blood, human blood, read-out: Human stability in blood % remaining 4 h) [%] | remaining at 1 h, 5 µM [1, 6] [%] | remaining at 4 h, 5 µM [1, 7] [%] | EC50 (RXFP1) [nM] | remaining at 1 h, 5 µM [3, 8] [%] | remaining at 4 h, 5 µM [3, 9] [%] | Structure (SMILES) |
| --- | --- | --- | --- | --- | --- | --- | --- | --- | --- | --- | --- | --- | --- | --- | --- | --- | --- |
| 100 | 95 | 79 | 80 | 6020 | 5.72 | 2400 | 10 | 47 | 100 | 93 | 87 |  |  |  |  |  | CCCCCCCCCCCCCCCC(=O)N[C@@H](CCC(=O)N[C@@H](CCC(=O)N[C@@H](CCC(=O)NCCOCCOCC(=O)NCCOCCOCC(=O)NCCOCCOCC(=O)NCCCC[C@H](NC(=O)[C@H](CCCCNC(C)=O)NC(=O)[C@H](CCCCN)NC(=O)[C@H](CCCNC(=N)N)NC(=O)C(C)(C)NC(=O)[C@H](CO)NC(=O)[C@H](Cc1c[nH]c2ccccc12)NC(=O)[C@@H](NC(=O)[C@H](CO)NC(=O)[C@H](CCCC)NC(=O)CNC(=O)[C@H](CCC(=O)O)NC(=O)C(C)(C)NC(=O)C(C)(C)NC(=O)[C@@H](NC(=O)[C@H](CCCCNC(C)=O)NC(=O)[C@H](C)NC(=O)[C@H](CCCNC(=N)N)NC(=O)[C@@H](NC(=O)[C@H](CCCCN)NC(=O)[C@H](CCC(=O)O)NC(=O)[C@H](CCCNC(=N)N)NC(=O)CNC(=O)[C@H](CCC(=O)O)NC(=O)[C@H](CC(C)C)NC(C)=O)C(C)C)[C@@H](C)CC)[C@@H](C)O)C(N)=O)C(=O)O)C(=O)O)C(=O)O [compound 63] (Ac-LEGREKVRAK(Ac)I[Aib][Aib]EG[Nle]STWS[Aib]RKK(Ac)K([AEEA-AEEA-AEEA-γGlu-γGlu-γGlu-Palmitoyl])-NH2) |
| 100 |  |  | 85 | 2600 | 2.5 | 1600 | 8 | 27 | 100 |  |  | 93 | 110 | 0.63 | 98 | 106 | CCCCCCCCCCCCCCCC(=O)N[C@@H](CCC(=O)NCCCC[C@H](NC(=O)CC[C@H](NC(=O)CC[C@H](NC(=O)CC[C@H](NC(=O)COCCOCCNC(=O)COCCOCCNC(=O)COCCOCCNC(=O)[C@H](CCCCN)NC(=O)[C@H](CCCCN)NC(=O)[C@H](CCCCN)NC(=O)[C@H](CCCNC(=N)N)NC(=O)C(C)(C)NC(=O)[C@H](CO)NC(=O)[C@H](Cc1c[nH]c2ccccc12)NC(=O)[C@@H](NC(=O)[C@H](CO)NC(=O)[C@H](CCCC)NC(=O)CNC(=O)[C@H](CCC(=O)O)NC(=O)C(C)(C)NC(=O)C(C)(C)NC(=O)[C@@H](NC(=O)[C@H](CCC(N)=O)NC(=O)[C@H](C)NC(=O)[C@H](CCCNC(=N)N)NC(=O)[C@@H](NC(=O)[C@H](CCCCN)NC(=O)[C@H](CCC(=O)O)NC(=O)[C@H](CCCNC(=N)N)NC(=O)CNC(=O)[C@H](CCC(=O)O)NC(=O)[C@H](CC(C)C)NC(C)=O)C(C)C)[C@@H](C)CC)[C@@H](C)O)C(=O)O)C(=O)O)C(=O)O)C(N)=O)C(=O)O [compound 107] (Ac-LEGREKVRAQI[Aib][Aib]EG[Nle]STWS[Aib]RKKK[AEEA][AEEA][AEEA][γGlu][γGlu][γGlu]K([γGlu-Palmitoyl])-NH2) |
| 100 | 84 | 92 | 95 | 4990 | 3 | 2320 | 6 | 42 | 100 |  |  |  |  |  |  |  | CCCCCCCCCCCCCCCCCC(=O)N[C@@H](CCC(=O)N[C@@H](CCC(=O)N[C@@H](CCC(=O)NCCCC[C@H](NC(=O)[C@H](CCCCN)NC(=O)[C@H](CCCNC(=N)N)NC(=O)C(C)(C)NC(=O)[C@H](CO)NC(=O)[C@H](Cc1c[nH]c2ccccc12)NC(=O)[C@@H](NC(=O)[C@H](CO)NC(=O)[C@H](CCCC)NC(=O)CNC(=O)[C@H](CCC(=O)O)NC(=O)C(C)(C)NC(=O)C(C)(C)NC(=O)[C@@H](NC(=O)[C@H](CCC(N)=O)NC(=O)[C@H](C)NC(=O)[C@H](CCCNC(=N)N)NC(=O)[C@@H](NC(=O)[C@H](CCCCN)NC(=O)[C@H](CCC(=O)O)NC(=O)[C@H](CCCNC(=N)N)NC(=O)CNC(=O)[C@H](CCC(=O)O)NC(=O)[C@H](CC(C)C)NC(C)=O)C(C)C)[C@@H](C)CC)[C@@H](C)O)C(N)=O)C(=O)O)C(=O)O)C(=O)O [compound 9] (Ac-LEGREKVRAQI[Aib][Aib]EG[Nle]STWS[Aib]RKK([γGlu-γGlu-γGlu-Stearoyl])-NH2) |
| 100 |  |  | 96 |  |  |  |  |  | 100 |  |  | 99 | 89 | 0.15 | 86 | 90 | CCCCCCCCCCCCCCCCCC(=O)N[C@@H](CCC(=O)N[C@@H](CCC(=O)N[C@@H](CCC(=O)NCCCC[C@H](NC(=O)COCC(=O)NCCCOCCOCCOCCCNC(=O)COCC(=O)NCCCOCCOCCOCCCNC(=O)[C@H](CCCCNC(C)=O)NC(=O)[C@H](CCCCN)NC(=O)[C@H](CCCNC(=N)N)NC(=O)C(C)(C)NC(=O)[C@H](CO)NC(=O)[C@H](Cc1c[nH]c2ccccc12)NC(=O)[C@@H](NC(=O)[C@H](CO)NC(=O)[C@H](CCCC)NC(=O)CNC(=O)[C@H](CCC(=O)O)NC(=O)C(C)(C)NC(=O)C(C)(C)NC(=O)[C@@H](NC(=O)[C@H](CCCCNC(C)=O)NC(=O)[C@H](C)NC(=O)[C@H](CCCNC(=N)N)NC(=O)[C@@H](NC(=O)[C@H](CCCCN)NC(=O)[C@H](CCC(=O)O)NC(=O)[C@H](CCCNC(=N)N)NC(=O)CNC(=O)[C@H](CCC(=O)O)NC(=O)[C@H](CC(C)C)NC(C)=O)C(C)C)[C@@H](C)CC)[C@@H](C)O)C(N)=O)C(=O)O)C(=O)O)C(=O)O [compound 19] (Ac-LEGREKVRAK(Ac)I[Aib][Aib]EG[Nle]STWS[Aib]RKK(Ac)-X1) |
